Results as given in PubChem BioAssay (NCI).
“And” between values parts separate entries of the source, which are not always exact repeats. Equal values may be shown once.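 Test compounds were applied to cells in 96-well plates for 48 hours at 5 doses. At the GI50, growth is halved. TGI is the concentration that stops growth completely.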

Legend:
Assay in all cases: NCI tumour cell line growth inhibition, 48 h; in the data active means GI50 below about 0.43 µM; inactive means the rest
SF-295 CNS = system: SF-295 CNS
HCT-116 colon = system: HCT-116 colon
EKVX NSCLC = system: EKVX NSCLC
UACC-257 melanoma = system: UACC-257 melanoma
COLO 205 colon = system: COLO 205 colon
M14 melanoma = system: M14 melanoma
DU-145 prostate = system: DU-145 prostate
SNB-19 CNS = system: SNB-19 CNS
NCI-H460 lung = system: NCI-H460 lung
KM12 colon = system: KM12 colon
XF 498 CNS = system: XF 498 CNS
DLD-1 colon = system: DLD-1 colon

C[Si](C)(OCCS(=O)(=O)O)C1(Cc2cccc3ccccc23)S(=O)(=O)OCCOS1(=O)=O
37.8 µM: TGI (HCT-116 colon)
41.1 µM: TGI (NCI-H460 lung)
80.1 µM: TGI (UACC-257 melanoma)
37.4 µM: TGI (DU-145 prostate)
46.1 µM: TGI (M14 melanoma)
32.3 µM: TGI (EKVX NSCLC)
69.9 µM: TGI (SF-295 CNS)
25.3 µM: TGI (COLO 205 colon)
42.9 µM: TGI (SNB-19 CNS)
29.5 µM: TGI (KM12 colon)

COc1ccc(-n2cnnc2-c2nsc3ccccc23)cc1
> 100 µM: TGI (HCT-116 colon) | TGI (EKVX NSCLC) | TGI (UACC-257 melanoma) | TGI (COLO 205 colon) | TGI (M14 melanoma) | TGI (SNB-19 CNS) | TGI (NCI-H460 lung) | TGI (KM12 colon)

CC(C)OP(=O)(OC(C)C)/C(I)=N/Nc1ccc([N+](=O)[O-])cc1
> 100 µM: TGI (SF-295 CNS) | TGI (HCT-116 colon) | TGI (EKVX NSCLC) | TGI (UACC-257 melanoma) | TGI (COLO 205 colon) | TGI (XF 498 CNS) | TGI (M14 melanoma) | TGI (DLD-1 colon) | TGI (SNB-19 CNS) | TGI (NCI-H460 lung) | TGI (KM12 colon)

CC(NC(=O)C(C)NC(=O)C(N)CCP(C)(=O)O)C(=O)O (stereo not given)
> 100 µM: TGI (SF-295 CNS) | TGI (HCT-116 colon) | TGI (EKVX NSCLC) | TGI (UACC-257 melanoma) | TGI (COLO 205 colon) | TGI (XF 498 CNS) | TGI (DLD-1 colon) | TGI (SNB-19 CNS) | TGI (NCI-H460 lung) | TGI (KM12 colon)

Nc1nc(SCc2ccc([N+](=O)[O-])cc2)nc2c1ncn2C1OC(COP(=O)(O)O)C(O)C1O (stereo not given)
> 100 µM: TGI (SF-295 CNS) | TGI (HCT-116 colon) | TGI (EKVX NSCLC) | TGI (UACC-257 melanoma) | TGI (COLO 205 colon) | TGI (XF 498 CNS) | TGI (M14 melanoma) | TGI (DLD-1 colon) | TGI (SNB-19 CNS) | TGI (NCI-H460 lung) | TGI (KM12 colon)

Cc1ccc(N=N/C(=N\NC(=O)c2ccc(C)cc2)c2ccc(N(CCC#N)CCC#N)cc2C)cc1
91.8 µM: TGI (M14 melanoma)
> 100 µM: TGI (SF-295 CNS) | TGI (EKVX NSCLC) | TGI (UACC-257 melanoma) | TGI (COLO 205 colon) | TGI (DU-145 prostate) | TGI (SNB-19 CNS) | TGI (NCI-H460 lung)
30.3 µM: TGI (KM12 colon)

CCOP(=O)(OCC)/C(C#N)=C/c1cn(C)cn1
> 100 µM: TGI (SF-295 CNS) | TGI (EKVX NSCLC) | TGI (UACC-257 melanoma) | TGI (COLO 205 colon) | TGI (M14 melanoma) | TGI (SNB-19 CNS) | TGI (NCI-H460 lung) | TGI (KM12 colon)

CC1=Nc2nc(Cl)cn2C(=O)C1(Cl)Cl
> 10 µM: TGI (SF-295 CNS) | TGI (HCT-116 colon) | TGI (EKVX NSCLC) | TGI (COLO 205 colon) | TGI (M14 melanoma) | TGI (DU-145 prostate) | TGI (SNB-19 CNS) | TGI (NCI-H460 lung) | TGI (KM12 colon)

N[C@H](C(=O)O)[C@H]1ON=C(Cl)[C@@H]1O
> 52.9 µM and 174 µM: TGI (NCI-H460 lung)
> 301 µM: TGI (XF 498 CNS)
> 550 µM: TGI (SF-295 CNS) | TGI (HCT-116 colon) | TGI (EKVX NSCLC) | TGI (UACC-257 melanoma) | TGI (COLO 205 colon) | TGI (DLD-1 colon) | TGI (SNB-19 CNS) | TGI (KM12 colon)
inactive: GI50 (SF-295 CNS) 2830 nM | GI50 (HCT-116 colon) 4.4 µM | GI50 (EKVX NSCLC) 11.2 µM | GI50 (UACC-257 melanoma) > 51.1 µM | GI50 (COLO 205 colon) 3.27 µM | GI50 (SNB-19 CNS) 40.7 µM | GI50 (NCI-H460 lung) 3.92 µM | GI50 (KM12 colon) 2230 nM
> 66.9 µM: TGI (M14 melanoma)

Cc1ccc(N2Cc3c(ccc4ccccc34)OP2(=O)Oc2ccc(Cl)c(C)c2)cc1 (stereo not given)
> 100 µM: TGI (SF-295 CNS) | TGI (HCT-116 colon) | TGI (EKVX NSCLC) | TGI (UACC-257 melanoma) | TGI (COLO 205 colon) | TGI (XF 498 CNS) | TGI (DLD-1 colon) | TGI (SNB-19 CNS) | TGI (NCI-H460 lung) | TGI (KM12 colon)
